The text below walks through data of patent publication US20130116586A1, “USE OF DRONEDARONE OR A PHARMACEUTICALLY ACCEPTABLE SALT THEREOF FOR THE PREPARATION OF A DRUG FOR THE PREVENTION OF ATRIAL FIBRILLATION” (SANOFI, priority 2011, published 2013).

For data set [1], the system named is patients with permanent atrial fibrillation or flutter. Kind of data set: PALLAS study: dronedarone 400 mg bid vs placebo on top of standard therapy. Format: in vivo, human. As to conditions: for unplanned cardiovascular hospitalizations and mortality, events recorded: 400 mg bid; for relative risk of cardiovascular hospitalizations and deaths vs placebo: Cox model. An excerpt:
The PALLAS trial (Permanent Atrial fibriLLAtion outcome Study) using dronedarone on top of standard therapy was designed to evaluate the efficacy of dronedarone on major cardiovascular events in a patient population with permanent AF.
The primary efficacy objective of PALLAS was the reduction of: • 1) major cardiovascular events (stroke, systemic arterial embolism, myocardial infarction or cardiovascular death), or • 2) unplanned cardiovascular hospitalization or death from any cause.
Patients with permanent AF were at least 65 years of age with a 12-lead ECG recorded no more than 14 days prior to randomization showing AF or atrial flutter, documentation in the form of ECG rhythm strips or medical reports indicating AF or atrial flutter for at least 6 months prior to randomization without evidence of sinus rhythm in the intervening period. In addition, both the patient and physician must have reached a decision to allow AF to continue without further efforts to restore sinus rhythm.
Patients were randomized to dronedarone 400 mg bid or placebo.
• 1. NYHA class IV or recent unstable NYHA class III heart failure, where unstable refers to a requirement for intensification of therapy (e.g., increased diuretic, ACE/ARB, or inotropic dosage due to exacerbated symptoms within one month prior to randomization). • 2. Sustained daytime bradycardia <50 bpm without a permanent pacemaker • 3. QTc interval ≧500 ms, or 530 ms if there is ventricular paced rhythm • 4. Hypersensitivity to the active substance or to any of its excipients • 5. Need for co-administration of strong CYP3A4 inhibitors, such as ketoconazole, itraconazole, voriconazole, telithromycin, clarithromycin, nefazodone and ritonavir leading to increased systemic exposure to dronedarone • 6. Need for co-administration of medicinal products capable of inducing torsades de pointes ventricular tachycardia, such as phenothiazines, cisapride, bepridil, tricyclic antidepressants, terfenadine and certain oral macrolides, or Vaughan Williams class I and III antiarrhythmic agents) • 7. Severe hepatic impairment
Treatment was initiated using tablets containing either the placebo or an amount of dronedarone hydrochloride corresponding to 400 mg of dronedarone at a rate of one tablet twice a day with the morning and evening meals.
The anticipated duration of the treatment was variable according to the time at which each patient was included in the study, and could range between 3 months for the last patient included and 3 years for the first patient included.
The results obtained in this trial were analysed by the Kaplan Meier method for the figures, and the relative risk (RR) was estimated using Cox's proportional-effect regression model.
The relative risk (RR) is the ratio of the rates of occurrence of a hospitalization or of a death among the patients on dronedarone, relative to the patients on placebo.

Data set [2] concerns patients with atrial fibrillation/atrial flutter. Put plainly: ATHENA trial, including post-hoc exploratory analysis of patients with AF on all follow-up ECGs. Type of data set: in vivo, human. The note with it: for patients displaying AF on all ECGs recorded during follow-up: of 2301 patients assigned to dronedarone. The procedure:
• AF/AFL atrial fibrillation or atrial flutter • ATHENA A placebo-controlled, double-blind, parallel arm Trial to assess the efficacy of dronedarone 400 mg bid for the prevention of cardiovascular Hospitalization or death from any cause in patiENts with Atrial fibrillation/atrial flutter • PALLAS Permanent Atrial fibriLLAtion Outcome Study Using Dronedarone on Top of Standard Therapy
For the sake of hypothesis generation, these patients can be considered as having permanent AF. In a post-hoc exploratory analysis of this cohort, the primary study endpoint (time to first CV hospitalization or all-cause death) occurred in 95 patients in the placebo group and 46 in the dronedarone group (HR 0.742, 95% Cl 0.522-1.056; p=0.096). Considering first unplanned CV hospitalizations, 85 patients in the placebo group and 37 on dronedarone reached this secondary study endpoint (HR 0.67, 95% Cl 0.46-0.99; p=0.04). There was a similar trend toward reduction in major cardiovascular events (stroke, ACS, cardiovascular death). These observations from ATHENA supported testing the efficacy of dronedarone for prevention of major cardiovascular events in patients with permanent AF.

Data set [3] has the same test system. As to conditions: whole ATHENA trial; cited from earlier work.
Data set [4] relates to patients hospitalized with symptomatic unstable heart failure and severe left ventricular systolic function. As to conditions: trial terminated early; cited from earlier work.
The test system of data set [5] is patients with permanent atrial fibrillation. The note with it: in vivo; cited from earlier work.
Data set [6] relates to patients with atrial fibrillation. As to conditions: in vivo; cited from earlier work.

Structures are written as SMILES. Structures can show the parent of a compound that is named as a salt.

Regarding `CCCCc1oc2ccc(NS(C)(=O)=O)cc2c1C(=O)c1ccc(OCCCN(CCCC)CCCC)cc1` [dronedarone hydrochloride], the “unplanned cardiovascular hospitalizations and mortality, events recorded” value in data set [1] (preliminary results, placebo group 72 events) came to 114 events; in data set [1] (results (III.1'), placebo group 67 events) it was 127 events. Besides, the “relative risk of cardiovascular deaths vs placebo” value in data set [1] (preliminary results, 95% CI 0.98-6.53, p=0.0462) is recorded as 2.53; in data set [1] (results (III.2'), 95% CI 1.00-4.49, p=0.046) it was 2.11. For the same compound, the “relative risk of cardiovascular hospitalizations vs placebo” value in data set [1] (preliminary results, 95% CI 1.15-2.12, p=0.0039) came to 1.56. The “relative risk of cardiovascular hospitalizations for heart failure vs placebo” value in data set [1] (preliminary results, 95% CI 1.22-3.99, p=0.0070) is reported as 2.21; in data set [1] (results (III.4'), 95% CI 1.10-2.99, p=0.02), 1.81. The “relative risk of heart failure related episodes vs placebo” value in data set [1] (preliminary results, 95% CI 1.66-3.74, p<0.0001) is 2.49. Moreover, the “relative risk of cardiovascular hospitalizations and deaths vs placebo” value in data set [1] (preliminary results, 95% CI 1.20, 2.17, p=0.001) came out at 1.62; in data set [1] (results (III.1'), p<0.001) it was 1.95. Besides, the “cardiovascular mortality, events recorded” value was 15 events in data set [1] (preliminary results, placebo group 6 events) and 21 events in data set [1] (results (III.2'), placebo group 10 events). Further, the “cardiovascular hospitalizations for heart failure, events recorded” value in data set [1] (preliminary results, placebo group 16 events) is recorded as 35 events; in data set [1] (results (III.4'), placebo group 24 events) it was 43 events. Moreover, the “heart failure, events recorded” value in data set [1] (preliminary results, placebo group 33 events) was 80 events. Besides, the “unplanned cardiovascular hospitalizations, events recorded” value in data set [1] (preliminary results, placebo group 68 events) worked out at 104 events. The “relative risk of cardiovascular hospitalizations and death vs placebo” value in data set [1] (preliminary results, subgroup with NYHA class III heart failure, 95% CI 1.02, 2.44, p=0.041) was found to be 1.58; in data set [1] (preliminary results, subgroup with left ventricular ejection fraction (LVEF)<40%, 95% CI 1.20, 2.30, p=0.002), 1.66; in data set [1] (preliminary results, subgroup with symptomatic heart failure, 95% CI 1.01, 2.09, p=0.043), 1.46. Further, the “relative risk of unplanned hospitalizations for cardiovascular causes vs placebo” value in data set [1] (results (III.3'), 95% CI 1.44-2.70, p<0.001) came out at 1.97. Moreover, the “unplanned hospitalizations for cardiovascular causes, events recorded” value in data set [1] (results (III.3'), placebo group 59 events) was 113 events. The “relative risk of a heart failure episode or hospitalizations for heart failure vs placebo” value in data set [1] (results (III.9), 95% CI 1.57-2.98, p<0.001) is recorded as 2.16. Further, in data set [1] (results (III.9), placebo group 55 events), the “heart failure episode or hospitalizations for heart failure, events recorded” value is 115 events.
For the compound `CCCCc1oc2ccc(NS(C)(=O)=O)cc2c1C(=O)c1ccc(OCCCN(CCCC)CCCC)cc1` [dronedarone, 2-n-Butyl-3-[4-(3-di-n-butylaminopropoxy)benzoyl]-5-methylsulphonamidobenzofuran], the “co-primary outcomes, cardiovascular hospitalizations and heart failure events in the dronedarone group” value in data set [1] (preliminary review of the unblinded data) is recorded as “highly significant excess of events”. For the same compound, the “patients displaying AF on all ECGs recorded during follow-up” value in data set [2] (placebo 12.7%) amounted to 7.7%; in data set [2] (placebo 296 of 2,327) it was 178 patients. Also, the “HR for first unplanned CV hospitalizations vs placebo” value in data set [2] (post-hoc cohort with AF on all ECGs, 95% CI 0.46-0.99, p=0.04) was determined as 0.67. For the same compound, the “HR for primary study endpoint (first CV hospitalization or all-cause death) vs placebo” value in data set [2] (post-hoc cohort with AF on all ECGs, 95% CI 0.522-1.056, p=0.096) is recorded as 0.742. Also, in data set [2] (post-hoc cohort with AF on all ECGs, placebo 85), the “first unplanned CV hospitalizations, patients reaching endpoint” value amounted to 37 patients. In addition, the “primary study endpoint (time to first CV hospitalization or all-cause death), patients with event” value in data set [2] (post-hoc cohort with AF on all ECGs, placebo 95) was 46 patients. In data set [3], the “major clinical outcomes including cardiovascular hospitalizations or cardiovascular mortality, and stroke” value was “reduced major clinical outcomes”. In addition, in data set [4], the mortality vs placebo result is “increased mortality”. In data set [5], the rate control result is “has rate-controlling properties”. Also, the rhythm-controlling efficacy entry in data set [6] is reported as “has been demonstrated”.
